Entries after “also recorded” stand apart in the source; their conditions may differ.
Key:
kappa opioid receptor = kappa opioid receptor (Homo sapiens, UniProt P41145); assay: Opioid receptor activation assay, DiscoveRx PathHunter Beta-Arrestin, kappa; assay type: cell-based
Text: Opioid Receptor Activation Assay.
PathHunter™ Beta-Arrestin GPCR Functional Profiling and Screening cell lines that express the individual opioid receptors were obtained from DiscoveRx (Fremont, Calif.). These cells express the kappa (or mu or delta) opioid receptor fused to a proprietary β-galactosidase enzyme fragment and the […]-arrestin gene fused to an enzyme acceptor (the remaining fragment of β-galactosidase). Upon activation of the receptor, β-arrestin is recruited to the GPCR and the β-galactosidase is activated through enzyme complementation. Cells were grown using standard cell culture techniques and then plated at 30,000 cells/well in 90 μl in a 96 well white, clear bottom plate and incubated overnight. Dilutions were prepared in dilution buffer (HBBS, 20 mMHepes, 0.1% BSA) and 10 μl added per well. Plates were then incubated for 90 min at 37° C. in a water-saturated atmosphere. Plates were then allowed to come to room temp and DiscoveRx's proprietary developing agent added as recommended by the manufacturer. This agent contains a detergent, 6-O-β-galactopyranosyl-luciferen and luciferase. Plates were then incubated for 1 hr at room temperature before being read on a luminometer. Antagonist studies were performed in an identical manner except after the overnight incubation 10 μl media was removed and replaced with drug or naloxone at the indicated concentration. […] To calculate % maximal luminescence, background was subtracted from the experimental values and this was divided by maximal luminescence and multiplied by 100.
To confirm this, and to determine their relative activities, we assessed their efficiency using PathHunter™ Beta-Arrestin GPCR Functional Profiling and Screening cell lines from DiscoveRx (Fremont, Calif.) as described in the Materials and Methods section.

[1] = test system: rewarding properties (compartment preference); assay: Conditioned place preference; assay type: in vivo, rat; settings: 20 mg/kg p.o., alternate treatment over eight days; listed as JT09
Procedure: Conditioned Place Preference.
To test whether JT09 was able to condition appetitive behaviors, we used a conditioned place procedure. On day one, rats were habituated to a three-compartment apparatus for 10 min. One compartment was black with a grid floor and the other white with a rod floor. A smaller center compartment was gray with a solid floor. The amount of time spent in each compartment was recorded. The side in which the rats spent the least amount of time on habituation day was paired with JT09, in that rats receive the compound via oral gavage immediately before compartment placement. On alternating days, rats were treated with saline and confined in the opposite compartment. Rats were confined to each compartment for 25 minutes. Test rats were orally gavaged with saline and given access to the entire apparatus for 10 minutes. The amount of time spent in each compartment was recorded.

[2] = test system: sedation (distance traveled); assay: Locomotor open field test
Procedure: Locomotor Open Field Test.
Sedation and a loss of muscle coordination are common CNS-mediated side effects of opioids. To assess the sedative effects of JT09, rats were given JT09 (20 mg/kg, p.o.) or morphine (10 mg/kg, i.p.) 20 min before placement in an automated (68 l×21 w×21 h cm) activity chambers for a 30 min test. Morphine was used as a comparison group due to its well-known sedative effects.

Sequence of kappa opioid receptor (P41145 whole entry): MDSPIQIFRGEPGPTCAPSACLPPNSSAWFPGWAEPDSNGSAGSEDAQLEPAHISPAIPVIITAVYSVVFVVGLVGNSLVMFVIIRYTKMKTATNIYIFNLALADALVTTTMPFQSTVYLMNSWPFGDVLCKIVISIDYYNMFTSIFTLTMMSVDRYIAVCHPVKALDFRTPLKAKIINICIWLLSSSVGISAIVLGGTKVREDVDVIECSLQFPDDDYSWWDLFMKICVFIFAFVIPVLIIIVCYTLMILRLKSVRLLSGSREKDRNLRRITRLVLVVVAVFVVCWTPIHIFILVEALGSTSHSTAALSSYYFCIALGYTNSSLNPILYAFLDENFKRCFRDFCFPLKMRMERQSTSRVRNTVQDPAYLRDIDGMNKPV

CCCC[C@@H](NC(=O)[C@@H](Cc1ccccc1)NC(=O)[C@H](N)Cc1ccccc1)C(=O)N[C@H](CCCCN(C)C)C(=O)NCc1ccncc1 [Compound 9]
EC50, activation of kappa opioid receptor (kappa opioid receptor; PathHunter Beta-Arrestin): low nM range | EC50 (kappa opioid receptor; PathHunter Beta-Arrestin, 3-6 repeats, read-out: 95% confidence levels of EC50, activation of kappa receptors): 15.3 to 54.5 nM | agonist selectivity for kappa over both mu- and delta-opioid receptors (kappa opioid receptor; minimal estimate): > 33,400 | conditioned place preference for drug-paired compartment over saline [1]: did not develop a preference; also recorded: had no effect on compartment placement | locomotor activity (distance traveled) versus saline ([2]; 20 mg/kg p.o., 30 min test): statistically indistinguishable | locomotor activity relative to morphine ([2]; JT09 20 mg/kg p.o. versus morphine 10 mg/kg i.p., time bins 1, 2 and 5): higher locomotor activity | sedation in locomotor test ([2]; JT09 20 mg/kg p.o., morphine 10 mg/kg i.p.): showed no sedation

Source: US20200316159A1, “SUSTAINED RELEASE COMPOSITIONS OF KAPPA-OPIOID RECEPTOR AGONIST” (JT PHARMACEUTICALS, INC., priority 2016, published 2020)
